Data published in PMC9823088, “The oral selective estrogen receptor degrader GDC-0810 (ARN-810) in postmenopausal women with hormone receptor-positive HER2-negative (HR + /HER2 −) advanced/metastatic breast cancer” (Breast Cancer Research and Treatment, 2022).

Experiments:
[1] = test system: MBC; design: method as in PMID 34906954; details: cited from earlier work
[2] = Plasma pharmacokinetics of GDC-0810 and glucuronide metabolites; format: in vivo, human; details: steady state, 600-mg QD, non-fasted condition
Description: Blood samples were collected for pharmacokinetic assessments. Tumor assessments were performed at screening and every 8 weeks from cycle 1, day 1 (C1D1). Radiographic assessment of objective tumor response or disease progression was based on Response Evaluation Criteria in Solid Tumors (RECIST v1.1). Transvaginal ultrasound scans were performed to monitor endometrial thickness at screening, at every 6 months from C1D1, and at the end of treatment. Imaging with [^18F]-fluoroestradiol positron emission tomography (FES-PET) was performed to quantify ER expression in tumors and to assess for pharmacodynamic response. Further assessment details are provided in Supplementary Methods.
CYP2B6 and CYP2C enzymes. […]
Blood samples were collected for pharmacokinetic assessment on lead-in day −7 and cycle 2 day 1 (C2D1) at predose (0 hour) and postdose (0.5, 1, 1.5, 2, 3, 4, 6, 8, and 24 hours), (plus at 48 hours postdose for day−7). Full plasma pharmacokinetic profiles were obtained for GDC-0810 and its glucuronide metabolites (acyl-glucuronide and N-glucuronide) using a validated liquid chromatography/ tandem mass spectrometry method, and analyzed using non-compartmental methods for all patients in the dose escalation cohorts.
Tumor assessments were performed at screening and every 8 weeks from cycle-1, day-1 […]

[3] = test system: ER; design: method as in PMID 25380844; details: patients receiving fulvestrant; cited from earlier work
[4] = design: method as in PMID 32919527; details: cited from earlier work

Compound: CCNCCc1ccc(CN(CC)c2cc(OC)ccc2[C@@H]2CCc3cc(O)ccc3C2)cc1 [elacestrant]
- PFS ([1]; patients with MBC who received endocrine + CDK4/6 previously): 2.8 months
- median PFS ([1]; patients with tumors harboring ESR1 mutations): 3.8 months

Compound: CC/C(=C(/c1ccc(/C=C/C(=O)O[C@@H]2O[C@H](C(=O)O)[C@@H](O)[C@H](O)[C@H]2O)cc1)c1ccc2[nH]ncc2c1)c1ccc(F)cc1Cl [GDC-0810-acyl-glucuronide]
- average plasma exposure of metabolite relative to parent GDC-0810 [2]: ~10%

Compound: C[C@]12CC[C@@H]3c4ccc(O)cc4C[C@@H](CCCCCCCCC[S+]([O-])CCCC(F)(F)C(F)(F)F)[C@H]3[C@@H]1CC[C@@H]2O (some centres unmarked) [fulvestrant]
- patients with residual ER activity by FES-PET [3]: 38%
- solubility [4]: poor solubility
